PubChem BioAssay AID1963844 (Molecular Pharmacology Branch, DTP, NCI, 2024)
pIC50: −log10 of the molar value.

Test system: 422866-222-R5-J1-PDC complex spheroid viability
Assay: Anticancer human tumor 422866-222-R5-J1-PDC patient-derived pancreatic adenocarcinoma cell line growth inhibition [POLQ]
Conditions: for pIC50: curve of first compound; for viability, T/C: stronger effect = lower value
Description: Multicellular complex tumor spheroid response to Polymerase (POL) inhibitors (novobiocin, ART-558, RP6685) in combination with a variety of drugs and investigational agents in selected tumor cell lines
The POL inhibitors (novobiocin, ART-558, and RP6685) were evaluated both individually and in combination with standard of care and investigational anticancer small molecules within a complex spheroid model of solid tumors. . Complex spheroids include a stromal component modeled by human endothelial cells (HUVEC) and fibroblasts modeled by human mesenchymal stem cells (MSCs). The concentration ranges selected for each drug and investigational agent were based upon clinically achievable concentrations if the clinical Cmax of the agent was known.
Compounds. The drugs and investigational agents: novobiocin (NSC847541), ART-558 (NSC835418), RP-6685 (NSC848927), peposertib (NSC802822), ceralasertib (NSC780249), elimusertib (NSC800525), camonsertib (NSC841442), AZD-1390 (NSC803789), olaparib (NSC753686), talazoparib (NSC767125), rucaparib (NSC756644), sotorasib (NSC818433), MRTX-1133 (NSC836407), SN-38 (NSC673596), topotecan (NSC609699), epotoside (NSC141540), doxorubicin (NSC123127), gemcitabine (NSC613327), 5-fluorouracil (NSC19893), paclitaxel (NSC125973), vemurafenib (NSC761431), MSA-2 (NSC828583), SN-011 (NSC837082), adavosertib (NSC754352), prexasertib (NSC758257), carboplatin (NSC241240) and oxaliplatin (NSC266046), were obtained from the National Cancer Institute (NCI) Developmental Therapeutics Program Chemical Repository (21). The FDA-approved anticancer drug set is available from the Developmental Therapeutics Program at https://dtp.cancer.gov/organization/dscb/obtaining/. […] The stock solutions were prepared in dimethyl sulfoxide (DMSO, Sigma-Aldrich, St. Louis, MO, cat. D2650), except for the platinum compounds which were prepared in saline (Quality Biological, Gaithersburg, MD, cat. 114-055-101), at 800-fold the tested concentration and stored at -70 degrees C prior to their use. All drugs and investigational agents were tested over a range starting from a high concentration at or near the clinical Cmax and decreasing in half-log increments. If the clinical Cmax for an agent had not been determined, the highest concentration tested was 10 microM, except for SN-38, which was tested at a high concentration of 1 microM.
Cell Culture. All cells were maintained in an incubator at 37 degrees C and 5% CO2 with 95% humidity. The PDC lines were cultured according to standard operating procedures established by the NCI PDMR (https://pdmr.cancer.gov). Table 3 of the manuscript, lists the cell lines along with the number of the three cell types plated to form the mct-spheroids and media for tumor cell growth. After thawing, all PDC lines, except 997537-175-T-J1-PDC and 415267-285-R-J2-PDC, were cultured in Matrigel-coated flasks prepared with a working solution of 1X Ham's F-12 nutrient mix, without supplementation (Thermo Fisher Scientific, cat. 11765054), 100 U/mL penicillin-streptomycin (Thermo Fisher Scientific, cat. 15140122), and 2.5% Matrigel (Corning Inc., Corning, NY, cat. 354248) for the first three passages. The two PDC lines 997537-175-T-J1-PDC and 415267-285-R-J2-PDC were cultured on uncoated flasks. The 857933-349-R-J2-PDC line was cultured in 6C/Colon 1B media containing advanced DMEM/F-12 (Thermo Fisher Scientific, cat. 12634028), 10 mM HEPES (Thermo Fisher Scientific, cat. 15630080), 1X GlutaMAX supplement (Thermo Fisher Scientific, cat. 35050061), 0.1 mg/mL primocin (InvivoGen, San Diego, CA, cat. ant-pm-2), 10% defined fetal bovine serum, heat inactivated (HyClone Laboratories Inc., Logan, UT, cat. SH30070.03HI), 50% L-WRN conditioned media (ATCC, cat. CRL-3276), 1.25 mM N-Acetyl-L-cysteine (Sigma-Aldrich, cat. A9165), 10 mM nicotinamide (Sigma-Aldrich, cat. N0636), 1X B-27 supplement (Thermo Fisher Scientific, cat. 17504044), 1X N-2 supplement (Thermo Fisher Scientific, cat. […]

[1] = second compound 0.0316 µM, first compound 0.0316 µM
[2] = second compound 0.0316 µM, first compound 0.1 µM
[3] = second compound 0.0316 µM, first compound 0.316 µM
[4] = second compound 0.0316 µM, first compound 1 µM
[5] = second compound 0.0316 µM, first compound 3.16 µM
[6] = second compound 0.0316 µM, first compound 10 µM
[7] = second compound 0.1 µM, first compound 0.0316 µM
[8] = second compound 0.1 µM, first compound 0.1 µM
[9] = second compound 0.1 µM, first compound 0.316 µM
[10] = second compound 0.1 µM, first compound 1 µM
[11] = second compound 0.1 µM, first compound 3.16 µM
[12] = second compound 0.1 µM, first compound 10 µM
[13] = second compound 0.316 µM, first compound 0.0316 µM
[14] = second compound 0.316 µM, first compound 0.1 µM
[15] = second compound 0.316 µM, first compound 0.316 µM
[16] = second compound 0.316 µM, first compound 1 µM
[17] = second compound 0.316 µM, first compound 3.16 µM
[18] = second compound 0.316 µM, first compound 10 µM
[19] = second compound 1 µM, first compound 0.0316 µM
[20] = second compound 1 µM, first compound 0.1 µM
[21] = second compound 1 µM, first compound 0.316 µM
[22] = second compound 1 µM, first compound 1 µM
[23] = second compound 1 µM, first compound 3.16 µM
[24] = second compound 1 µM, first compound 10 µM
[25] = second compound 3.16 µM, first compound 0.0316 µM
[26] = second compound 3.16 µM, first compound 0.1 µM
[27] = second compound 3.16 µM, first compound 0.316 µM
[28] = second compound 3.16 µM, first compound 1 µM
[29] = second compound 3.16 µM, first compound 3.16 µM
[30] = second compound 3.16 µM, first compound 10 µM
[31] = second compound 10 µM, first compound 0.0316 µM
[32] = second compound 10 µM, first compound 0.1 µM
[33] = second compound 10 µM, first compound 0.316 µM
[34] = second compound 10 µM, first compound 1 µM
[35] = second compound 10 µM, first compound 3.16 µM
[36] = second compound 10 µM, first compound 10 µM
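Also: spheroids exposed to compounds for one week before readout.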
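For viability, T/C in this document: percent of DMSO vehicle wells luminescence so 100% = untreated viability.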

Question: What does the source list for `COc1cccc2c1C(=O)c1c(O)c3c(c(O)c1C2=O)CC(O)(C(=O)CO)CC3OC1CC(N)C(O)C(C)O1` (centres undefined) + Cc1cccc(N(C)C(=O)C2C(O)CCN2c2nc(C)cc(C(F)(F)F)c2C#N)c1?
Answer: pIC50 (second compound 0.0316 µM): 6.80; pIC50 (second compound 0.1 µM): 6.94; pIC50 (second compound 0.316 µM): 6.82; pIC50 (second compound 1 µM): 6.69; pIC50 (second compound 3.16 µM): 6.69; pIC50 (second compound 10 µM): 6.88; viability, T/C [1]: 67.2%; viability, T/C [2]: 56.3%; viability, T/C [3]: 41.4%; viability, T/C [4]: 24.5%; viability, T/C [5]: 32.9%; viability, T/C [6]: 30.1%; viability, T/C [7]: 66.6%; viability, T/C [8]: 51.3%; viability, T/C [9]: 37%; viability, T/C [10]: 22.6%; viability, T/C [11]: 27.4%; viability, T/C [12]: 34.4%; viability, T/C [13]: 57.6%; viability, T/C [14]: 56.7%; viability, T/C [15]: 37.3%; viability, T/C [16]: 25.6%; viability, T/C [17]: 26.2%; viability, T/C [18]: 36.4%; viability, T/C [19]: 65.5%; viability, T/C [20]: 60.8%; viability, T/C [21]: 42.4%; viability, T/C [22]: 24.5%; viability, T/C [23]: 28.6%; viability, T/C [24]: 36.6%; viability, T/C [25]: 62.3%; viability, T/C [26]: 58.5%; viability, T/C [27]: 44.3%; viability, T/C [28]: 30.1%; viability, T/C [29]: 30.2%; viability, T/C [30]: 36.2%; viability, T/C [31]: 68.2%; viability, T/C [32]: 53%; viability, T/C [33]: 40.5%; viability, T/C [34]: 25.9%; viability, T/C [35]: 24.1%; viability, T/C [36]: 40.2%

Question: Which results are given for `O=c1[nH]cc(F)c(=O)[nH]1` + Cc1cccc(N(C)C(=O)C2C(O)CCN2c2nc(C)cc(C(F)(F)F)c2C#N)c1?
Answer: pIC50 (second compound 0.0316 µM): < 5.00; pIC50 (second compound 0.1 µM): < 5.00; pIC50 (second compound 0.316 µM): < 5.00; pIC50 (second compound 1 µM): < 5.00; pIC50 (second compound 3.16 µM): < 5.00; pIC50 (second compound 10 µM): < 5.00; viability, T/C [1]: 117%; viability, T/C [2]: 98.5%; viability, T/C [3]: 102%; viability, T/C [4]: 88.2%; viability, T/C [5]: 82.1%; viability, T/C [6]: 74.9%; viability, T/C [7]: 111%; viability, T/C [8]: 92.2%; viability, T/C [9]: 92.3%; viability, T/C [10]: 90.8%; viability, T/C [11]: 66.9%; viability, T/C [12]: 74.3%; viability, T/C [13]: 118%; viability, T/C [14]: 109%; viability, T/C [15]: 99.9%; viability, T/C [16]: 84.3%; viability, T/C [17]: 81.1%; viability, T/C [18]: 78.2%; viability, T/C [19]: 111%; viability, T/C [20]: 96.6%; viability, T/C [21]: 97.9%; viability, T/C [22]: 101%; viability, T/C [23]: 84.8%; viability, T/C [24]: 83.2%; viability, T/C [25]: 107%; viability, T/C [26]: 98.6%; viability, T/C [27]: 86.3%; viability, T/C [28]: 83%; viability, T/C [29]: 83.8%; viability, T/C [30]: 87.6%; viability, T/C [31]: 90.6%; viability, T/C [32]: 88.8%; viability, T/C [33]: 99.7%; viability, T/C [34]: 80.6%; viability, T/C [35]: 86.7%; viability, T/C [36]: 67.8%
